Laboratory results taken from US20100113602A1, “USE OF HISTONE DEACETYLASE INHIBITORS FOR THE TREATMENT OF CENTRAL NERVOUS SYSTEM METASTASES” (The United States of America,as represented by the …, priority 2007, published 2010).
In brackets after ≈: the same amount, converted by molar mass.

Columns and labels:
Assay type in all cases: cell-based, human
[1] = system: acetyl Histone H3, acetyl histone H4, p21; assay: Western blot of 231-BR cell lysates after HDI treatment; conditions: 231-BR cells; depsipeptide 10 ng/mL or SAHA 5 μM; 0, 8, 24, 48 hours
Method: All cell lines are deemed free of mycoplasma and human pathogens and test negative in mouse antibody production (MAP) tests. […] Drug solution is added once at the beginning and left on the cells for the indicated duration (0, 8, 24, and 48 hours). Controls are performed in the same way with the same amount of vehicle solution for each drug, but without the drug. The vehicle can be DMSO. Cells are lysed according to standard procedures and Western blotting is performed. Primary antibodies specific to the targeted proteins are used including antibodies specific to acetyl Histone H3, acetyl histone H4, p21, and α-tubulin. Horseradish peroxidase-conjugated secondary antibodies purchased from Santa Cruz Biotechnology (Santa Cruz, Calif.) are used at dilutions of 1:5000. Proteins are visualized using enhanced chemilluminescence (Cell Signaling) and autoradiography. […] As histones H3 and H4 become hyperacetylated, protein levels of the cyclin-dependent kinase inhibitor p21 increase. Those changes indicate HDAC inhibition.

231-BR cells [2] = assay: MTT proliferation / colonization assay of 231-BR cells; conditions: for Colonization Data, % Control: 231-BR cells, 72-hour incubation, SAHA 5 μM, depsipeptide 10 ng/mL, VPA 10 mM, TSA 100 ng/mL, ± standard deviation
Method: The prepared cells are plated at a density of 15,000 cells/well in a 96 well plate and incubated for 3 hours to permit attachment. Cells are then washed with PBS, and media containing either 0.1% or 1% FBS is added to the cells. […] After a 72-hour incubation, 0.5 mg/mL MTT (Sigma, St. Louis, Mo.) is added and plates are incubated for 2 hours. Media is then aspirated, and MTT dissolved in DMSO for 30 minutes, after which the absorbance is read at a wavelength of 570 nm. […] Data in Table 4 is shown as percent of colonies formed±standard deviation compared to untreated controls. Results are representative of three independent experiments in quintuplicate. Analysis of variance (ANOVA) is used to assess in vitro functions of vehicle treated versus vorinostat treated cells. P values can be two-tailed. Tests can be performed using GraphPad InStat version 3.0 software.

231-BR cells [3] = assay: 48-well Boyden chamber chemotaxis (motility) assay; conditions: 24 hours drug treatment, 4 hours migration, SAHA 5 μM, depsipeptide 10 ng/mL, VPA 10 mM, TSA 100 ng/mL, ± standard deviation; for Motility Data, mean number of cells that migrate per well, 0.5% FCS: 0.5% FCS chemoattractant; for Motility Data, mean number of cells that migrate per well, Control: Control (no FCS chemoattractant)
Method: 231-BR Cells are used as described in Example 2. A 48-well Boyden chemotaxis chamber is used. Polycarbonate PVP-free Nucleopore filters (8 μm pore size) are coated with 0.01% collagen (BD Bioscience). […] Drug concentrations used are as described in Example 2. 231-BR cells, after 24 hours of vorinostat, other drug treatment, or control are added to the top chamber in DMEM with 1 mg/ml BSA at a concentration of 2×10^6 cells/ml. Chambers are incubated for 4 hours in a 37° C. incubator with 5% CO2. After chambers are disassembled, filters are fixed and stained with reagents from a Diff-Quik® Kit (Fischer Scientific). Cells that migrate through the Boyden chamber are counted using a light microscope. Representative areas are counted to determine the number of cells that have migrated for each well. Data in Table 5 are shown as mean number of cells±standard deviation that migrate per well. Analysis of variance (ANOVA) is used to assess in vitro functions of vehicle treated versus vorinostat treated cells. P values can be two-tailed. Tests can be performed using GraphPad InStat version 3.0 software.

Row | Structure (SMILES) | acetylation of histones H3 and H4 (Western blot) [1] | protein levels of the cyclin-dependent kinase inhibitor p21 (Western blot) [1] | Colonization Data, % Control (231-BR cells [2]) [% Control] | dose at which noticeable inhibition occurs (231-BR cells [2]; 231BR cells) [µg/mL] | IC50 (231-BR cells [2]; Homo sapiens, read-out: IC50 (growth inhibition, absorbance at 570 nm)) [mg/L] | Motility Data, mean number of cells that migrate per well, 0.5% FCS (231-BR cells [3]) | Motility Data, mean number of cells that migrate per well, Control (231-BR cells [3])
1 | C/C=C1\NC(=O)[C@H]2CSSCC/C=C/[C@H](CC(=O)N[C@H](C(C)C)C(=O)N2)OC(=O)[C@H](C(C)C)NC1=O [Depsipeptide] | hyperacetylated | increase | 10 ± 2.5 | ≥ 0.001 | 1.5 (≈ 2.77 µM) | 678 ± 33 | 129 ± 23
2 | CC(/C=C/C(=O)NO)=C\[C@@H](C)C(=O)c1ccc(N(C)C)cc1 [Trichostatin (TSA), trichostatin] |  |  | 30 ± 3.4 |  |  | 785 ± 17 | 108 ± 13
3 | CCCC(CCC)C(=O)O [Valporic Acid, valproic acid] |  |  | 46 ± 5.3 |  |  | 755 ± 37 | 242 ± 55
